Experimental data from ChEMBL document CHEMBL3272111, “Synthesis of 2-benzyloxy and 2-benzylthio analogues of primaquine as potential antimalarials” (1977).
Activity calls are given as the source filed them. The calls are words filed in the database; no cut-off is given here.

Assays:
Plasmodium cynomolgi [1] = experiment: Antimalarial activity against Plasmodium cynomolgi infected in monkey assessed as relapses day at 0.5 mg/kg, po; type: functional
Plasmodium cynomolgi [2] = experiment: Antimalarial activity against Plasmodium cynomolgi infected in monkey assessed as relapses day at 0.25 mg/kg, po; type: functional
Plasmodium cynomolgi [3] = experiment: Antimalarial activity against Plasmodium cynomolgi infected in monkey assessed as curative activity without disease relapses until 90 days at 1 mg/kg, po by radical curative monkey test; type: functional, organism-based; parameters: dose 1 mg/kg
Plasmodium cynomolgi [4] = experiment: Antimalarial activity against Plasmodium cynomolgi infected in monkey assessed as curative activity without disease relapses until 90 days at 1.5 mg/kg, po by radical curative monkey test; type: functional, organism-based; parameters: dose 1.5 mg/kg
Plasmodium cynomolgi [5] = experiment: Antimalarial activity against Plasmodium cynomolgi infected in monkey assessed as relapses day at 1 mg/kg, po; type: functional
Plasmodium cynomolgi [6] = experiment: Antimalarial activity against Plasmodium cynomolgi infected in monkey assessed as relapses day at 10 mg/kg, po; type: functional
Plasmodium berghei [7] = experiment: Antimalarial activity against Plasmodium berghei infected in mouse at 320 to 640 mg/kg; type: functional, organism-based
Plasmodium berghei [8] = experiment: Antimalarial activity against Plasmodium berghei infected in mouse at 640 mg/kg; type: functional, organism-based; parameters: dose 640 mg/kg
Plasmodium cynomolgi [9] = experiment: Antimalarial activity against Plasmodium cynomolgi infected in monkey assessed as curative activity without disease relapses until 90 days at 0.75 mg/kg, po by radical curative monkey test; type: functional, organism-based; parameters: dose 0.75 mg/kg
Plasmodium cynomolgi [10] = experiment: Antimalarial activity against Plasmodium cynomolgi infected in monkey assessed as curative activity without disease relapses until 90 days at 0.375 mg/kg, po by radical curative monkey test; type: functional, organism-based; parameters: dose 0.375 mg/kg
Plasmodium cynomolgi [11] = experiment: Antimalarial activity against Plasmodium cynomolgi infected in monkey assessed as relapses day at 0.375 mg/kg, po; type: functional

Row | SMILES | Time (Plasmodium cynomolgi [1]) | Activity (Plasmodium cynomolgi [3]) | Time (Plasmodium cynomolgi [5]) | further results
1 | COc1cc(NC(C)CCCN)c2nc(OCc3ccc(C(F)(F)F)cc3)ccc2c1.O=C(O)/C=C\C(=O)O (stereo unspecified) | 5 days | Active |  | Time (Plasmodium cynomolgi [2]): 9 days
2 | COc1cc(NC(C)CCCN)c2nc(OCc3ccccc3)ccc2c1 (stereo unspecified) |  |  |  | Activity (Plasmodium cynomolgi [4]): Active
3 | COc1cc(NC(C)CCCN)c2nc(OCc3ccc(Cl)cc3)ccc2c1.O=C(O)/C=C\C(=O)O (stereo unspecified) |  |  | 9 days | 
4 | COc1cc(NC(C)CCCN)c2nc(SCc3ccc(Cl)cc3)ccc2c1.O=C(O)/C=C\C(=O)O (stereo unspecified) | 7 days |  |  | Time (Plasmodium cynomolgi [6]): 7 days; Activity (Plasmodium berghei [7]): Active
5 | COc1cc(NC(C)CCCN)c2nc(OCc3ccc(Cl)cc3Cl)ccc2c1.O=C(O)/C=C\C(=O)O (stereo unspecified) | 8 days | Active |  | Activity (Plasmodium berghei [8]): Active
6 | COc1cc(NC(C)CCCN)c2nc(SCc3ccccc3)ccc2c1.O=C(O)/C=C\C(=O)O (stereo unspecified) | 9 days |  | 15 days | 
7 | COc1ccc(COc2ccc3cc(OC)cc(NC(C)CCCN)c3n2)cc1.O=C(O)/C=C\C(=O)O (stereo unspecified) |  |  | 7 days | Time (Plasmodium cynomolgi [6]): 18 days
8 | COc1cc(NC(C)CCCN)c2nc(OCc3ccc(F)cc3)ccc2c1.O=C(O)/C=C\C(=O)O (stereo unspecified) | 91 days | Active |  | Time (Plasmodium cynomolgi [2]): 5 days; Activity (Plasmodium berghei [8]): Active
9 | COc1cc(NC(C)CCCN)c2nc(OCc3cccc(C(F)(F)F)c3)ccc2c1.O=C(O)/C=C\C(=O)O (stereo unspecified) | 6 days | Active | 13 days | 
10 | COc1cc(NC(C)CCCN)c2ncccc2c1.O=P(O)(O)O.O=P(O)(O)O (stereo unspecified) [PRIMAQUINE PHOSPHATE] | 11 days |  |  | Activity (Plasmodium cynomolgi [9]): Active; Activity (Plasmodium cynomolgi [10]): inactive; Time (Plasmodium cynomolgi [11]): 11 days
